Laboratory results reported in patent US7045343B2, “Sterilization indicator test packs” (3M Innovative Properties Company, priority 1998, dated 2006).

Legend:
[1] = test system: Bacillus stearothermophilus spores; experiment: Spore outgrowth (color change) of indicators after prevacuum steam sterilization; type: cell-based; conditions: 4-pulse prevacuum steam 121° C., 7–13 min
Description: (§1) The indicators prepared for the Examples were dual rapid readout indicators that provided both a rapid, enzyme-based efficacy test and a confirmatory spore outgrowth test. Spores coated on the carrier strip 16 served as the source of active enzyme whose activity was measured by the rapid enzyme test. These same spores were then incubated in the spore outgrowth portion of the test.
(§2) Bacillus stearothermophilus, commercially available as ATCC 7953 from American Type Culture Collection, Rockville, Md., was grown overnight (16 hours) at 58° C. in tryptic soy broth. This culture was used to inoculate the surface of agar plates consisting of 8 g/l nutrient broth, 4 g/l yeast extract, 0.1 g/l manganese chloride and 20 g/l agar at pH 7.2. Plates were incubated at 58° C. for 72 hours. Spores were scraped from the plates and suspended in sterile distilled water. The spores were separated from the vegetative debris by centrifuging the suspension at 7000 rpm and 4° C. for 20 minutes. The supernatant was poured off and the spores were resuspended in sterile distilled water. The cleaning procedure was repeated several times. After the final wash, the spores were suspended in sterile distilled water, at a concentration of approximately 1×10^8 spores per milliliter.
(§3) The spores were then treated with the chemicals identified in Tables 1–5. All chemicals tested were obtained from commercial sources. The spores were centrifuged at 6000 rpm for 10 minutes. The supernatant and coating chemical mixtures were heated at 60–80° C. for several minutes and vortexed to get the material into solution. The spores were then mixed into the sterilant-resistant chemical solution. The sterilant-resistant chemical solution was applied to 5×25 mm, 591 A paper strips (Schleicher & Schuell, Inc., Keene, N.H.) by pipetting 10–15 microliters to each strip for a final population of about 1×10^6 spores per strip. The strips were dried 16 hours at 37° C.
(§4) The treated spore strips were placed on the bottom of the outer container 12 of the indicator 10 and a barrier was inserted between the spore strip 16 and the inner container 18, which contained enzyme substrate. A […] ( 11/16 inch) disc of polypropylene blown microfiber material, with a weight of 200 g/m^2, commercially available as “THINSULATE™ 200-B brand Thermal Insulation” from 3M Company, St. Paul, Minn., was used as the barrier. The inner container 18 contained 0.67 ml nutrient medium, consisting of 17 g of a bacteriological peptone and a 0.17 g/l of L-alanine, as well as 0.1 g 4-methylumbelliferyl-alpha-D-glucoside, commercially available from Sigma Chemical Company, St. Louis, Mo., dissolved in 200 microliters of N,N-dimethylformamide, and 0.03 g bromocresol purple pH indicator dye, per liter of water. The pH of the enzyme substrate and nutrient medium solution was adjusted to 7.6 with 0.1N sodium hydroxide.
(§5) Sterilization indicators were made as described above with each of the chemicals and concentrations described in Table 1. Control indicators were made using untreated spores. The indicators were placed in metal instrument trays and exposed at 121° C. in a Getinge Steam Sterilizer (Getinge International, Inc., 1100 Towbin Ave., Lakewood, N.J.) using a 4-pulse prevacuum cycle at 121° C. with a vacuum level of 0.075–0.085 bar and a steam pulse to 1.00 bar for each pulse. Indicators were exposed in the sterilizer for between 7 and 13 minutes. This cycle is depicted in the time-pressure diagram in FIG. 5. After exposure the inner containers containing the enzyme substrate and nutrient medium were crushed and the indicators were incubated at 60° C. The indicators were examined for fluorescence using a 3M™ ATTEST™ Model 190 Rapid Autoreader, commercially available from 3M Company, St. Paul, Minn. Additionally, spore growth, as indicated by a color change from purple to yellow, was determined visually after 168 hours of incubation at 60° C. […]

[2] = test system: enzyme associated with Bacillus stearothermophilus spores; experiment: Rapid enzyme fluorescence readout of dual rapid readout indicators after prevacuum steam sterilization; type: biochemical; conditions: 4-pulse prevacuum steam 121° C., 7–13 min
Description: as §1, §2, §3, §4, §5

Substance	NO. GROWTH POSITIVE 168 HR ([1]; Example 1, 20 mg/ml coating)	NO. GROWTH POSITIVE 168 HR ([1]; Example 1, 40 mg/ml coating)	FLUORESCENCE - PERCENT POSITIVE 1 HR ([2]; Example 1, 20 mg/ml coating) [%]	FLUORESCENCE - PERCENT POSITIVE 2 HR ([2]; Example 1, 20 mg/ml coating) [%]	FLUORESCENCE - PERCENT POSITIVE 3 HR ([2]; Example 1, 20 mg/ml coating) [%]	FLUORESCENCE - PERCENT POSITIVE 4 HR ([2]; Example 1, 20 mg/ml coating) [%]	FLUORESCENCE - PERCENT POSITIVE 5 HR ([2]; Example 1, 20 mg/ml coating) [%]	FLUORESCENCE - PERCENT POSITIVE 6 HR ([2]; Example 1, 20 mg/ml coating) [%]	FLUORESCENCE - PERCENT POSITIVE 1 HR ([2]; Example 1, 40 mg/ml coating) [%]	FLUORESCENCE - PERCENT POSITIVE 2 HR ([2]; Example 1, 40 mg/ml coating) [%]	FLUORESCENCE - PERCENT POSITIVE 3 HR ([2]; Example 1, 40 mg/ml coating) [%]	FLUORESCENCE - PERCENT POSITIVE 4 HR ([2]; Example 1, 40 mg/ml coating) [%]	FLUORESCENCE - PERCENT POSITIVE 5 HR ([2]; Example 1, 40 mg/ml coating) [%]	FLUORESCENCE - PERCENT POSITIVE 6 HR ([2]; Example 1, 40 mg/ml coating) [%]	also measured
Glycereth-7-diisononanoate	6	17	0	0	66.7	83.3	83.3	83.3	0	64.7	88.2	88.2	94.1	100.0	
POE(15) Glyceryl Monooleate															NO. GROWTH POSITIVE 168 HR ([1]; Example 5, 50 mg/ml coating): 1; FLUORESCENCE - PERCENT POSITIVE 1 HR ([2]; Example 5, 50 mg/ml coating): 0%; FLUORESCENCE - PERCENT POSITIVE 2 HR ([2]; Example 5, 50 mg/ml coating): 0%; FLUORESCENCE - PERCENT POSITIVE 3 HR ([2]; Example 5, 50 mg/ml coating): 0%; FLUORESCENCE - PERCENT POSITIVE 4 HR ([2]; Example 5, 50 mg/ml coating): 0%
Tetraglyceryl Monostearate	70	19	0	74.3	92.9	100.0	100.0	100.0	0	94.7	100.0	100.0	100.0	100.0	NO. GROWTH POSITIVE 168 HR ([1]; Example 1, 5 mg/ml coating): 37; NO. GROWTH POSITIVE 168 HR ([1]; Example 1, 10 mg/ml coating): 54; FLUORESCENCE - PERCENT POSITIVE 1 HR ([2]; Example 1, 5 mg/ml coating): 0%; FLUORESCENCE - PERCENT POSITIVE 2 HR ([2]; Example 1, 5 mg/ml coating): 43.2%; FLUORESCENCE - PERCENT POSITIVE 3 HR ([2]; Example 1, 5 mg/ml coating): 67.6%; FLUORESCENCE - PERCENT POSITIVE 4 HR ([2]; Example 1, 5 mg/ml coating): 83.8%; FLUORESCENCE - PERCENT POSITIVE 5 HR ([2]; Example 1, 5 mg/ml coating): 94.6%; FLUORESCENCE - PERCENT POSITIVE 6 HR ([2]; Example 1, 5 mg/ml coating): 97.3%; FLUORESCENCE - PERCENT POSITIVE 1 HR ([2]; Example 1, 10 mg/ml coating): 0%; FLUORESCENCE - PERCENT POSITIVE 2 HR ([2]; Example 1, 10 mg/ml coating): 63.0%; FLUORESCENCE - PERCENT POSITIVE 3 HR ([2]; Example 1, 10 mg/ml coating): 81.5%; FLUORESCENCE - PERCENT POSITIVE 4 HR ([2]; Example 1, 10 mg/ml coating): 94.4%; FLUORESCENCE - PERCENT POSITIVE 5 HR ([2]; Example 1, 10 mg/ml coating): 96.3%; FLUORESCENCE - PERCENT POSITIVE 6 HR ([2]; Example 1, 10 mg/ml coating): 98.1%
